Measured values taken from US20100010002A1, “ANTICANCER USE OF CAFFEIC ACID AND ITS DERIVATIVES” (Piramal Life Sciences Limited, priority 2006, published 2010).
Like-named read-outs stand apart in the source and are kept apart here.

Assays:
[1] = molecular target: T1, Ba/F3 Bcr-Abl/F359V (Homo sapiens, UniProt P00519, F359V, cells depend on it); assay: CCK-8 assay, Ba/F3 Bcr-Abl/F359V; format: cell-based
T1 construct: fused on or other part: P11274 (Breakpoint cluster region protein)

[2] = molecular target: T2, Ba/F3 Bcr-Abl/Q252H (Homo sapiens, UniProt P00519, Q252H, cells depend on it); assay: CCK-8 assay, Ba/F3 Bcr-Abl/Q252H; format: cell-based
T2 construct: fused on or other part: P11274 (Breakpoint cluster region protein)

[3] = molecular target: T3, Ba/F3 Bcr-Abl/Y253F (Homo sapiens, UniProt P00519, Y253F, cells depend on it); assay: CCK-8 assay, Ba/F3 Bcr-Abl/Y253F; format: cell-based
T3 construct: fused on or other part: P11274 (Breakpoint cluster region protein)

[4] = molecular target: T4, Ba/F3 Bcr-Abl/F317L (Homo sapiens, UniProt P00519, F317L, cells depend on it); assay: CCK-8 assay, Ba/F3 Bcr-Abl/F317L; format: cell-based
T4 construct: fused on or other part: P11274 (Breakpoint cluster region protein)

[5] = molecular target: T5, Ba/F3 Bcr-Abl/E255K (Homo sapiens, UniProt P00519, E255K, cells depend on it); assay: CCK-8 assay, Ba/F3 Bcr-Abl/E255K; format: cell-based
T5 construct: fused on or other part: P11274 (Breakpoint cluster region protein)

[6] = molecular target: T6, Ba/F3 Bcr-Abl/E255V (Homo sapiens, UniProt P00519, E255V, cells depend on it); assay: CCK-8 assay, Ba/F3 Bcr-Abl/E255V; format: cell-based
T6 construct: fused on or other part: P11274 (Breakpoint cluster region protein)

[7] = molecular target: T7, Ba/F3 Bcr-Abl/WT (Homo sapiens, UniProt P00519); assay: CCK-8 assay, Ba/F3 Bcr-Abl/WT; format: cell-based; settings: CCK-8, 72 h, imatinib mesylate sensitive; read-out: Inhibitory concentration (IC50), Ba/F3 Bcr-Abl/WT
T7 construct: fused on or other part: P11274 (Breakpoint cluster region protein)
Text: (§1) The cell lines described in Table 3 were used to test the antiproliferative activity of test compounds.
(§2) Cell Counting Kit-8 (CCK-8) allows very convenient assay by utilizing Dojindo's highly water-soluble tetrazolium salt. CCK-8, being nonradioactive, allows sensitive colorimetric assay for the determination of number of viable cells in cell proliferation and cytotoxicity assays. The amount of the formazan dye generated by dehydrogenases in cells is directly proportional to the number of living cells. Thus, the CCK-8 assay can also be substituted for the H^3-Thymidine incorporation assay.
(§3) Plates were further incubated at 37° C., 5% CO2 incubator for 72 h. 10 μl of the CCK-8 solution was added to each well and plate was incubated for 1-4 h in the incubator. Measured the absorbance at 450 nm using a microplate reader.
(§4) A. The percent inhibition and IC50 were calculated in comparison with control values.

[8] = molecular target: T8, Ba/F3 Bcr-Abl/M244V (Homo sapiens, UniProt P00519, M244V, cells depend on it); assay: CCK-8 assay, Ba/F3 Bcr-Abl/M244V; format: cell-based
T8 construct: fused on or other part: P11274 (Breakpoint cluster region protein)

[9] = molecular target: T9, Ba/F3 Bcr-Abl/H396P (Homo sapiens, UniProt P00519, H396P, cells depend on it); assay: CCK-8 assay, Ba/F3 Bcr-Abl/H396P; format: cell-based
T9 construct: fused on or other part: P11274 (Breakpoint cluster region protein)

[10] = molecular target: Ba/F3 Bcr-Abl/T315I (Homo sapiens, UniProt P00519, T315I, cells depend on it)
Text: as §1, §2, §3, §4

[11] = molecular target: T10, Ba/F3 Bcr-Abl/M351T (Homo sapiens, UniProt P00519, M351T, cells depend on it); assay: CCK-8 assay, Ba/F3 Bcr-Abl/M351T; format: cell-based
T10 construct: fused on or other part: P11274 (Breakpoint cluster region protein)

[12] = system: K562; assay: CCK-8 cell proliferation and cytotoxicity assay, K562; format: cell-based, Human; settings: read-out: Inhibitory concentration (IC50), K562
[13] = molecular target: T11, Ba/F3 Bcr-Abl/H396R (Homo sapiens, UniProt P00519, H396R, cells depend on it); assay: CCK-8 assay, Ba/F3 Bcr-Abl/H396R; format: cell-based
T11 construct: fused on or other part: P11274 (Breakpoint cluster region protein)

[14] = molecular target: T12, Ba/F3 Bcr-Abl/Y253H (Homo sapiens, UniProt P00519, Y253H, cells depend on it); assay: CCK-8 assay, Ba/F3 Bcr-Abl/Y253H; format: cell-based
T12 construct: fused on or other part: P11274 (Breakpoint cluster region protein)

[15] = mouse, ba/f3 bcr-abl/t315i, 72 h
[16] = read-out: Inhibitory concentration (IC50), Ba/F3 Bcr-Abl/T315I, CCK-8, 72 h, imatinib mesylate resistant, Table 4
[17] = CCK-8, 72 h, imatinib mesylate sensitive K562

SMILES	GI50 ([1]; mouse, 72 h)	GI50 ([2]; mouse, 72 h)	GI50 ([3]; mouse, 72 h)	GI50 ([4]; mouse, 72 h)	GI50 ([5]; mouse, 72 h)	GI50 ([6]; mouse, 72 h)	GI50 [7]	GI50 ([8]; mouse, 72 h)	GI50 ([9]; mouse, 72 h)	GI50 [10, 15]	GI50 [10, 16]	GI50 ([11]; mouse, 72 h)	GI50 ([13]; mouse, 72 h)	GI50 ([14]; mouse, 72 h)	IC50 ([12]; Homo sapiens, K562, 72 h)	IC50 [12, 17]	other results
O=C(O)/C=C/c1ccc(O)c(O)c1 [Compound 1, 3-(3,4-Dihydroxy-phenyl)-acrylic acid [caffeic acid]]	> 100 µM	> 100 µM	> 100 µM	> 100 µM	> 100 µM	> 100 µM	> 100 µM	> 100 µM	> 100 µM	> 100 µM	> 100 µM	> 100 µM	> 100 µM	> 100 µM	> 100 µM		
CCCOC(=O)C=Cc1ccc(O)c(O)c1 [Compound 5, 3-(3,4-Dihydroxy-phenyl)-acrylic acid n-propyl ester]	2.5 µM	1.7 µM	1.7 µM	1.6 µM	2.9 µM	3.4 µM	2.4 ± 0.8 µM	3 µM	5.6 µM	0.6 µM	0.7 ± 0.1 µM	2.2 µM	1.1 µM	3.3 µM	13.5 ± 2.1 µM		
CCN1CCN(C(=O)C=Cc2ccc(O)c(O)c2)CC1 [Compound 9, 3-(3,4-Dihydroxy-phenyl)-1-(4-ethyl-piperazin-1-yl)-propenone]							40.6 ± 16.4 µM				43.1 ± 27.9 µM					59.5 µM	
CN1CCC(N2CCN(C(=O)/C=C/c3ccc(O)c(O)c3)CC2)CC1 [Compound 12, (E)-3-(3,4-dihydroxy-phenyl)-1-[4-(1-methyl-piperidin-4-yl)piperazin-1-yl]-propenone]							> 30 µM				> 30 µM					> 30 µM	
CC(C)NC(=O)/C=C/c1ccc(O)c(O)c1 [Compound 18, (E)-3-(3,4-dihydroxy-phenyl)-N-isopropyl-acrylamide]							19.4 ± 8.8 µM				9.5 ± 4.1 µM				32.1 µM		

Now from value to compound, other results behind:

GI50 ([1]; mouse, 72 h)	GI50 ([2]; mouse, 72 h)	GI50 ([3]; mouse, 72 h)	GI50 ([4]; mouse, 72 h)	GI50 ([5]; mouse, 72 h)	GI50 ([6]; mouse, 72 h)	GI50 [7]	GI50 ([8]; mouse, 72 h)	GI50 ([9]; mouse, 72 h)	GI50 [10, 15]	GI50 [10, 16]	GI50 ([11]; mouse, 72 h)	GI50 ([13]; mouse, 72 h)	GI50 ([14]; mouse, 72 h)	SMILES	IC50 ([12]; Homo sapiens, K562, 72 h)	IC50 [12, 17]	other results
13.4 µM	8.4 µM	6.4 µM	12.3 µM	6.7 µM	10.2 µM	3.3 ± 0.9 µM	15.2 µM	16.6 µM	1.1 µM	2.3 ± 0.9 µM	8.7 µM	8.6 µM	13.2 µM	CCOC(=O)C=Cc1ccc(O)c(O)c1 [Compound 3, 3-(3,4-Dihydroxy-phenyl)-acrylic acid ethyl ester]	11.8 ± 8.8 µM		
14.6 µM	5.9 µM	5.2 µM	11.3 µM	5.1 µM	9.9 µM	2.3 ± 1.1 µM	9.8 µM	10.8 µM	2 µM	1.7 ± 1.1 µM	5.1 µM	7 µM	13.3 µM	CC(C)OC(=O)C=Cc1ccc(O)c(O)c1 [Compound 6, 3-(3,4-Dihydroxy-phenyl)-acrylic acid i-propyl ester]	16.5 ± 2.1 µM		
						2.8 ± 0.4 µM				2.5 ± 1.5 µM				O=C(C=Cc1ccc(O)c(O)c1)N1CCN(Cc2ccccc2)CC1 [Compound 10, 1-(4-Benzyl-piperazin-1-yl) 3-(3,4-dihydroxy-phenyl)-propenone]		18 µM	GI50 [1]: 2.6 µM; GI50 [2]: 1.5 µM; GI50 [3]: 1.1 µM; GI50 [4]: 1.2 µM; GI50 [5]: 2.4 µM; GI50 [6]: 2.1 µM; GI50 [8]: 1.3 µM; GI50 [9]: 3.7 µM; GI50 ([10]; ba/f3 bcr-abl/t315i): 3.1 µM; GI50 [11]: 2.2 µM; GI50 [13]: 1 µM; GI50 [14]: 2.5 µM
						27 ± 8.5 µM				26.6 ± 6.5 µM				O=C(/C=C/c1ccc(O)c(O)c1)N1CCN(c2ccccc2)CC1 [Compound 13, (E)-3-(3,4-dihydroxy-phenyl)-1-(4-phenylpiperazin-1-yl)-propenone]		33.5 µM	
						4.2 ± 1.3 µM				2.7 ± 0.5 µM				O=C(C=Cc1ccc(O)c(O)c1)N1CCC(Cc2ccccc2)CC1 [Compound 19, 1-(4-Benzyl-piperidin-1-yl)-3-(3,4-dihydroxy-phenyl)-propenone]		5.7 µM	GI50 [1]: 2.4 µM; GI50 [2]: 1.1 µM; GI50 [3]: 1 µM; GI50 [4]: 1.1 µM; GI50 [5]: 1.5 µM; GI50 [6]: 0.8 µM; GI50 [8]: 1 µM; GI50 [9]: 2.8 µM; GI50 ([10]; ba/f3 bcr-abl/t315i): 2.1 µM; GI50 [11]: 2.1 µM; GI50 [13]: 1.4 µM; GI50 [14]: 1 µM
